Measurements published in patent US4870071A, “Prophylactic and therapeutic agnet for hepatic disorder” (Senju Pharmaceutical Co., Ltd., priority 1986, dated 1989).
Entries after “also recorded” stand apart in the source; their conditions may differ.

What was measured:
[1] = system: CCl4-induced acute hepatic disorder; assay: Effect on CCl4-induced acute hepatic disorder, (A)-1 (time of pre-administration); assay type: in vivo, Wistar-strain male rats
Description: Wistar-strain male rats were used after fasting.
The hepatic disorder inducer CCl4 was intraperitoneally administered to each group in a dose of 0.08 ml/kg (diluted with olive oil so as to give a dose volume of 5 ml/kg) and, after about 18 hours, the blood was sampled for the assay of s-GOT and s-GPT.

[2] = system: alcohol-induced hepatopathy; assay: Effect on alcohol-induced hepatopathy (liver TG); assay type: in vivo, Male Wistar rats
Description: (§1) Male Wistar rats were used after fasting.
After 13 hours, 20% alcohol was orally administered at 5 g/kg. After 8 hours, the liver was removed and TG was determined by the acetylacetone method.

[3] = Solubility of the calcium salt; assay type: physicochemical
[4] = system: CCl4-induced chronic hepatic disorder; assay: Effect on CCl4-induced chronic hepatic disorder; assay type: in vivo, Male SD rats; conditions: for Pathological examination of the liver: H.E. staining, compared with control group
Description: Male SD rats were used in two groups, namely the control group and the CGCa group.
CCl4 was dissolved in olive oil in a concentration of 10% (w/v) and the solution was intraperitoneally administered in a dose of 5 ml/kg twice a week (Tuesday and Friday) for 10 weeks. Three days after the last CCl4 administration, blood samples were collected in each group for the assay of s-GOT, s-GPT, etc. Assay of liver hydroxyproline (HyP) and pathological examination of the liver following H.E. staining were also performed.

[5] = system: CCl4-induced acute hepatic disorder; assay: Effect on CCl4-induced acute hepatic disorder, (A)-2 (dose); assay type: in vivo, Male Wistar rats; conditions: for s-GOT / s-GPT: 10 hours before CCl4
Description: Ten hours later, CCl4 was intraperitoneally administered in a dose of 0.08 ml/kg. About 18 hours thereafter, the blood was sampled for the assay of s-GOT and s-GPT.

[6] = system: galactosamine-induced hepatopathy; assay: Effect on galactosamine-induced hepatopathy; assay type: in vivo, Male Wistar rats
Description: Galactosamine-induced hepatopathy is caused by inhibition of glycoprotein and protein metabolisms and has been used as an experimental model since it pathologically resembles viral hepatitis.
as §1
Fifteen (15) hours later, a second administration was performed in the same dose. […] Twenty-four (24) hours thereafter, blood samples were collected for the assay of s-GOT and s-GPT.

mice = assay: Acute toxicity in mice, intravenous injection (LD50)
From the text: Acute toxicity of the compounds according
to the invention in terms of LD50
Referring to the above table, the injection No. 1 was adjusted to pH 7.0-7.2 by adding sodium carbonate after dissolution of the sample.

[7] = Transfer to plasma and plasma level duration after oral administration; assay type: in vivo, rabbits; conditions: for Transfer to bloodstream on oral administration: rabbit, in vivo
Description: The sera separated from the blood samples were deproteinized with trichloroacetic acid and, then, free cysteine in the sera as well as cysteine resulting from hydrolysis following heating was determined by fluorescence labeling and high performance liquid chromatography (HPLC).

[8] = system: acetaminophen-induced hepatic disorder; assay: Effect on acetaminophen-induced hepatic disorder; assay type: in vivo, Male SD rats; conditions: 500 mg/kg oral, 1 hour before acetaminophen, 24 hours
Description: In this experiment, cysteineglucuronolactone and cysteineglucuronic acid salts (CG groups) were tested for their effects on acetaminophen-induced hepatic disorder in terms of their ability to suppress elevations in serum GOT, GPT, LDH and ALP. […] In the control and normal groups, 10 ml/kg of 0.5% CMC was orally administered and, in the CG groups, 500 mg/10 ml/kg of the respective compound was orally administered. An hour later, 400 mg/15 ml/kg of acetaminophen was intraperitoneally administered to the control and CG groups while 15 ml/kg of physiological saline was intraperitoneally administered to the normal group.

[9] = Acute oral toxicity test in mice (LD50); conditions: mouse, in vivo
hepatic disorder models = assay: Hepatic disorder models, overall statement; assay type: in vivo; conditions: oral
[10] = system: carbon tetrachloride-induced hepatic disorder; assay: Further experiments with CGL and CGNa: suppression of s-GOT and s-GPT after CCl4; assay type: in vivo, rats; conditions: 2.0 g/kg oral 1 hour earlier than CCl4 0.08 ml/kg i.p.; versus control group
Description: In further experiments in which cysteineglucuronolactone (CGL) and sodium cysteineglucuronate (CGNa) were respectively administered orally in a dose of 2.0 g/kg 1 hour earlier than intraperitoneal administration of 0.08 ml/kg of CCl4, the percent suppressions of s-GOT and s-GPT obtained as compared with the control group were as shown below.

[11] = CGCa I group, 2.0 g/kg oral 12 hours before CCl4
[12] = CGCa II group, 2.0 g/kg oral 10 hours before CCl4
[13] = CGCa III group, 2.0 g/kg oral 8 hours before CCl4
[14] = CGCa IV group, 2.0 g/kg oral 6 hours before CCl4
[15] = CGCa V group, 2.0 g/kg oral 4 hours before CCl4
[16] = 5% CGCa in diet, CCl4 twice a week for 10 weeks
[17] = 2.0 g/kg oral twice, galactosamine hydrochloride 400 mg/kg i.p., 24 hours

Compound: O=C(O)C1CSC(C(O)C(O)C(O)C(O)C(=O)O)N1 (stereo not shown) [CGCa, Calcium cysteineglucuronate]
- CCl4-induced increase of s-GPT (in words) ([1]; 10 or 12 hours earlier administration, p<0.05): significantly suppressed
- s-GOT [1, 11]: 1134.9 ± 361.57 Karmen units
- s-GPT [1, 11]: 310.5 ± 68.08 Karmen units
- s-GOT [1, 12]: 921.6 ± 198.34 Karmen units
- s-GPT [1, 12]: 308.5 ± 42.30 Karmen units
- s-GOT [1, 13]: 929.0 ± 201.14 Karmen units
- s-GPT [1, 13]: 328.2 ± 105.72 Karmen units
- s-GOT [1, 14]: 1493.3 ± 480.60 Karmen units
- s-GPT [1, 14]: 502.4 ± 210.66 Karmen units
- s-GOT [1, 15]: 1453.0 ± 515.58 Karmen units
- s-GPT [1, 15]: 516.3 ± 166.50 Karmen units
- CCl4-induced increase of s-GOT (in words) ([1]; administered 8 to 10 hours earlier than CCl4, p<0.05): significantly suppressed (p<0.05)
- Liver TG ([2]; 2.0 g/kg oral 13 hours before 20% alcohol 5 g/kg, 8 hours after alcohol): 4.4 ± 1.29 mg/g liver
- increase of liver TG level due to alcohol (in words) ([2]; oral, p<0.05): significantly suppressed this increase (p<0.05)
- Solubility (in words) [3]: low solubility
- elevation of LDH (in words) ([4]; 0.05<p<0.10): tended to suppress
- ALP [4, 16]: 59.5 ± 23.83 King-Armstrong units
- Albumin [4, 16]: 3.4 ± 0.28 g/dL
- Cholinesterase [4, 16]: 0.014 ± 5.16 × 10^-3 ΔpH
- LDH [4, 16]: 491.7 ± 312.24 Wroblewski units
- Liver HyP [4, 16]: 371.6 ± 93.05 µg/g
- Serum iron [4, 16]: 215.0 ± 39.01 µg/dL
- Total bilirubin [4, 16]: 0.35 ± 0.108 mg/dL
- s-GOT [4, 16]: 358.9 ± 157.13 Karmen units
- s-GPT [4, 16]: 130.3 ± 53.56 Karmen units
- γ-GTP [4, 16]: 3.0 ± 1.50 mU/ml
- Pathological examination of the liver [4]: although vacuolar degeneration was found, the original lobular structure of the liver was preserved without evidence of hepatocirrhosis, such as formation of pseudolobules; also recorded: Necrosis was scattered and cellular infiltration was slight as compared with the control group; also recorded: effective against the damage and fibrosis of hepatocytes
- Pathological examination of the liver ([4]; listed as CGC2): suppression of the fibrosis
- elevation of hydroxyproline (HyP) (in words) ([4]; liver, p<0.05): significantly suppressed
- elevation of s-GOT (in words) ([4]; p<0.05): significantly suppressed
- elevation of s-GPT (in words) ([4]; p<0.05): significantly suppressed
- increase in s-GOT ([5]; 1.43 g/kg): tendency toward suppression
- increase of s-GPT (in words) ([5]; 1.43 g/kg, p<0.05): significantly suppressed
- increase in s-GOT ([5]; 2.0 g/kg, p<0.05): significantly suppressed (p<0.05)
- increase in s-GPT (in words) ([5]; 2.0 g/kg, p<0.05): significantly suppressed (p<0.05)
- s-GOT ([5]; CGCa I group, 1.02 g/kg oral): 1755.6 ± 784.49 Karmen units
- s-GPT ([5]; CGCa I group, 1.02 g/kg oral): 427.2 ± 131.72 Karmen units
- s-GOT ([5]; CGCa II group, 1.43 g/kg oral): 1192.0 ± 264.07 Karmen units
- s-GPT ([5]; CGCa II group, 1.43 g/kg oral): 309.5 ± 86.25 Karmen units
- s-GOT ([5]; CGCa III group, 2.0 g/kg oral): 1106.2 ± 224.53 Karmen units
- s-GPT ([5]; CGCa III group, 2.0 g/kg oral): 299.9 ± 79.85 Karmen units
- s-GOT [6, 17]: 1643.1 ± 480.43 Karmen units
- s-GPT [6, 17]: 702.3 ± 223.08 Karmen units
- elevation of s-GOT (in words) ([6]; oral, p<0.05): inhibited the elevations significantly (p<0.05)
- elevation of s-GPT (in words) ([6]; oral, p<0.05): inhibited the elevations significantly (p<0.05)
- Acute toxicity (in words) (mice): somewhat increased toxicity
- Lapse of time until free cysteine content in plasma began to increase ([7]; rabbits, oral 500 mg/kg): 2 h
- Free cysteine content in plasma after 24 hours ([7]; rabbits, oral 500 mg/kg, 24 hours): at a normal value
- Duration of increased blood cysteine levels compared with equimolar cysteine ([7]; rabbits, oral, versus equimolar amount of cysteine): increased blood cysteine levels can be maintained for a prolonged period
- ALP [8]: 11.4 ± 1.52 BL (BesseyLowry) units
- LDH [8]: 705.1 ± 283.3 Wroblewski units
- s-GOT [8]: 284.2 ± 136.3 Karmen units
- s-GPT [8]: 121.7 ± 33.7 Karmen units
- LD50 [9]: 7500 mg/kg

Compound: O=C(O)C1CSC(C(O)C2OC(=O)C(O)C2O)N1 (stereo not shown) [CGL, Cysteineglucuronolactone]
- depression of GOT (in words) (hepatic disorder models): significant depressions
- depression of GPT (in words) (hepatic disorder models): significant depressions
- Suppression of s-GOT [10]: 35.0%
- Suppression of s-GPT [10]: 34.8%
- Transfer to bloodstream on oral administration [7]: translocated into the bloodstream
- ALP [8]: 10.7 ± 1.04 BL (BesseyLowry) units
- LDH [8]: 540.3 ± 238.1 Wroblewski units
- s-GOT [8]: 185.0 ± 83.3 Karmen units
- s-GPT [8]: 85.5 ± 22.7 Karmen units

Compound: O=C(O)C1CSC(C(O)C(O)C(O)C(O)C(=O)O)N1 (stereo not shown) [CGMg, Magnesium cysteineglucuronate]
- ALP [8]: 12.8 ± 1.20 BL (BesseyLowry) units
- LDH [8]: 857.5 ± 296.1 Wroblewski units
- s-GOT [8]: 386.3 ± 88.1 Karmen units
- s-GPT [8]: 141.9 ± 27.5 Karmen units

Compound: O=C(O)C1CSC(C(O)C(O)C(O)C(O)C(=O)O)N1 (stereo not shown) [CGNa, Sodium cysteineglucuronate]
- Suppression of s-GOT [10]: 37.2%
- Suppression of s-GPT [10]: 39.3%
- ALP [8]: 10.4 ± 1.22 BL (BesseyLowry) units
- LDH [8]: 557.2 ± 240.7 Wroblewski units
- s-GOT [8]: 180.1 ± 63.0 Karmen units
- s-GPT [8]: 78.4 ± 13.7 Karmen units

Compound: O=C(O)C1CSC(C(O)C(O)C(O)C(O)C(=O)O)N1 (stereo not shown) [cysteineglucuronic acid, Cysteineglucuronic acid]
- depression of GOT (in words) (hepatic disorder models): significant depressions
- depression of GPT (in words) (hepatic disorder models): significant depressions
- Transfer to bloodstream on oral administration [7]: translocated into the bloodstream
